Laboratory results from patent US20250375460A1, “STAT DEGRADERS AND USES THEREOF” (Kymera Therapeutics, Inc., priority 2022, published 2025).

Each compound was assayed against T1, STAT3 (Homo sapiens, UniProt P40763) (assay: STAT3 HiBiT degradation assay in transfected A549 cells). Settings: 24 h compound incubation, Nano-Glo HiBiT lytic detection, read-out: STAT3 HiBiT A549 degradation 24 h: Average external-Abs DC50.
T1 construct: expressed in transfected cells; host or cells: A549
Format: cell-based
Protocol: Compound preparation and Cell seeding: The transfected A549 cells were harvested from dish into cell culture medium and cell numbers counted. Cells were diluted with culture medium to the desired density and 30 μL of cell suspension (about 2000 cells/well) were added into each well of a 384-well cell culture plate as designated and transferred into 37° C. 5% CO2 incubator for 24 h. Compounds were dissolved to 10 mM stock solution and 12 μL of the stock solution was transferred to a 384 LDV-plate. 3 fold, 10-point dilution was performed by transferring 4 μL compound into 8 μL DMSO using a TECAN (EVO200) liquid handler. 30 μL of diluted compound from compound source plate was transferred into the cell plate as designated by using Echo550 and transferred into 37° C. 5% CO2 incubator for 24 h.
Detection: Plates were removed from incubators and equilibrated at room temperature for 15 minutes. Nano-Glo Hibit Lytic Detection reagent (Promega Cat #N3040) was thawed and equilibrated to room temperature before the experiment. 30 μL of Nano-Glo Hibit Lytic Detection reagent was added into each well to be detected. The plates were held at room temperature for 10 min followed by reading on EnSpire.
Data analysis: The remaining activity was calculated following the formula: Remaining Activity(%)=100%×(Lumsample−LumNC)/(LumPC−LumNC). Calculate the IC50 by fitting the curve using Xlfit (v5.3.1.3), equation 201: fit=(A+((B−A)/(1+((x/C)^D)))); A: Bottom; B: Top; C: IC50; and D: Slope.
The letter codes for STAT3 DC50 include: A (<0.001 μM), B (0.001-0.01 μM), C (0.01-0.1 μM), and D (>0.1 μM).

T1 sequence (P40763 whole entry): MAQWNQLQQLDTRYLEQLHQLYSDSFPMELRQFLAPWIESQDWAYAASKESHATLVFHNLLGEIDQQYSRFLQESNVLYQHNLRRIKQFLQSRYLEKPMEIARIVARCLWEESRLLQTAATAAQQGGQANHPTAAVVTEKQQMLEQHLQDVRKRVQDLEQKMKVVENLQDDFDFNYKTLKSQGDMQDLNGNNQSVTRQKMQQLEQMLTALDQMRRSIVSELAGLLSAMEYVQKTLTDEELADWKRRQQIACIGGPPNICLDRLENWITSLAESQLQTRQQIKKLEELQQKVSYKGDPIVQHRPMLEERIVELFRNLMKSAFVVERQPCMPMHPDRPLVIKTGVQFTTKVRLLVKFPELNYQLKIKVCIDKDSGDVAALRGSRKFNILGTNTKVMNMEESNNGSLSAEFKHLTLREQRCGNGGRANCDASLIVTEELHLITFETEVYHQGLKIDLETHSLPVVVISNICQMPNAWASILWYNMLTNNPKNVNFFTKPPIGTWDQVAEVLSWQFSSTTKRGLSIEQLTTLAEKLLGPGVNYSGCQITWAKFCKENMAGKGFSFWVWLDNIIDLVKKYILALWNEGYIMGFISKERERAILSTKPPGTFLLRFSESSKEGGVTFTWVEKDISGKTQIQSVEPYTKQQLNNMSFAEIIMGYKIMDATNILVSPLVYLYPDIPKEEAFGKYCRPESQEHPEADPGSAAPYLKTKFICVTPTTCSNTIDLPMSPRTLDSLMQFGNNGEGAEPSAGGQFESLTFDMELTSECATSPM

`C#Cc1ccc([C@H](C)NC(=O)[C@@H]2C[C@@H](O)CN2C(=O)[C@@H](c2cc(OCCCc3cccc(OC[C@H](CCC(N)=O)NC(=O)[C@@H]4CC[C@@H]5CCN(C(C)=O)C[C@H](NC(=O)c6cc7cc(C(=O)P(=O)(O)O)ccc7[nH]6)C(=O)N54)c3Cl)no2)C(C)C)cc1` [I-1] was tested. Which DC50 did it give?
Its DC50 is < 1 nM.

With `CC(=O)N1CC[C@H]2CC[C@@H](C(=O)N[C@@H](CCC(N)=O)COc3cccc(CCCOc4cc([C@H](C(=O)N5C[C@H](O)C[C@H]5C(=O)N[C@@H](C)c5ccc(-c6scnc6C)cc5)C(C)C)on4)c3F)N2C(=O)[C@@H](NC(=O)c2cc3cc(C(=O)P(=O)(O)O)ccc3[nH]2)C1` [I-15] as the compound, how does the DC50 read?
Its DC50 is < 1 nM.

With `CC(=O)N1CC[C@H]2CC[C@@H](C(=O)N[C@@H](CCC(N)=O)COc3cccc(CCCOc4cc([C@@H](C(=O)N5C[C@H](O)C[C@H]5C(=O)NCc5ccc(-c6scnc6C)cc5)C(C)C)on4)c3C)N2C(=O)[C@@H](NC(=O)c2cc3cc(C(=O)P(=O)(O)O)ccc3[nH]2)C1` [I-22] as the compound, how does the DC50 read?
Its DC50 is 10 to 100 nM.

`C#Cc1ccc([C@H](C)NC(=O)[C@@H]2C[C@@H](O)CN2C(=O)[C@@H](NC(=O)CCCc2cccc(OC[C@H](CCC(N)=O)NC(=O)[C@@H]3CC[C@@H]4CCN(C(C)=O)C[C@H](NC(=O)c5cc6cc(C(=O)P(=O)(O)O)ccc6[nH]5)C(=O)N43)c2F)C(C)(C)C)cc1` [I-8] was tested. Which DC50 did it give?
Its DC50 is 1 to 10 nM.

For `C#Cc1ccc(CNC(=O)[C@@H]2C[C@@H](O)CN2C(=O)[C@@H](NC(=O)CCCc2cccc(OC[C@H](CCC(N)=O)NC(=O)[C@@H]3CC[C@@H]4CCN(C(C)=O)C[C@H](NC(=O)c5cc6cc(C(=O)P(=O)(O)O)ccc6[nH]5)C(=O)N43)c2Cl)C(C)(C)C)cc1` [I-5], which DC50 is on record?
Its DC50 is 1 to 10 nM.

With `CC(=O)N1CC[C@H]2CC[C@@H](C(=O)N[C@@H](CCC(N)=O)COc3cccc(CCCOc4cc([C@@H](C(=O)N5C[C@H](O)C[C@H]5C(=O)N[C@@H](C)c5ccc(-c6scnc6C)cc5)C(C)C)on4)c3C)N2C(=O)[C@@H](NC(=O)c2cc3cc(C(=O)P(=O)(O)O)ccc3[nH]2)C1` [I-20] as the compound, how does the DC50 read?
Its DC50 is 10 to 100 nM.

For `C#Cc1ccc([C@H](C)NC(=O)[C@@H]2C[C@@H](O)CN2C(=O)[C@H](c2cc(OCCCc3cccc(OC[C@H](CCC(N)=O)NC(=O)[C@@H]4CC[C@@H]5CCN(C(C)=O)C[C@H](NC(=O)c6cc7cc(C(=O)P(=O)(O)O)ccc7[nH]6)C(=O)N54)c3C)no2)C(C)C)cc1` [I-11], which DC50 is on record?
The DC50 was > 100 nM.

Which DC50 does the source give for `C#Cc1ccc(CNC(=O)[C@@H]2C[C@@H](O)CN2C(=O)[C@@H](NC(=O)CCCc2cccc(OC[C@H](CCC(N)=O)NC(=O)[C@@H]3CC[C@@H]4CCN(C(C)=O)C[C@H](NC(=O)c5cc6cc(C(=O)P(=O)(O)O)ccc6[nH]5)C(=O)N43)c2C)C(C)(C)C)cc1` [I-14] here?
The DC50 was 1 to 10 nM.

For `C#Cc1ccc([C@H](C)NC(=O)[C@@H]2C[C@@H](O)CN2C(=O)[C@@H](c2cc(OCCCc3cccc(OC[C@H](CCC(N)=O)NC(=O)[C@@H]4CC[C@@H]5CCN(C(C)=O)C[C@H](NC(=O)c6cc7cc(C(=O)P(=O)(O)O)ccc7[nH]6)C(=O)N54)c3C)no2)C(C)C)cc1` [I-10], which DC50 is on record?
Its DC50 is 1 to 10 nM.

For `C#Cc1ccc(CNC(=O)[C@@H]2C[C@@H](O)CN2C(=O)[C@@H](c2cc(OCCCc3cccc(OC[C@H](CCC(N)=O)NC(=O)[C@@H]4CC[C@@H]5CCN(C(C)=O)C[C@H](NC(=O)c6cc7cc(C(=O)P(=O)(O)O)ccc7[nH]6)C(=O)N54)c3F)no2)C(C)C)cc1` [I-7], which DC50 is on record?
Its DC50 is < 1 nM.

With `CCOP(=O)(OCC)C(=O)c1ccc2[nH]c(C(=O)N[C@H]3CN(C(C)=O)CC[C@H]4CC[C@@H](C(=O)N[C@@H](CCC(N)=O)COc5cccc(CCCOc6cc([C@H](C(=O)N7C[C@H](O)C[C@H]7C(=O)NCc7ccc(-c8scnc8C)cc7)C(C)C)on6)c5Cl)N4C3=O)cc2c1` [I-25] as the compound, how does the DC50 read?
The DC50 was 10 to 100 nM.

For `CC(=O)N1CC[C@H]2CC[C@@H](S(=O)(=O)N[C@@H](CCC(N)=O)COc3cccc(CCCC(=O)N[C@H](C(=O)N4C[C@H](O)C[C@H]4C(=O)N[C@@H](C)c4ccc(-c5scnc5C)cc4)C(C)(C)C)c3Cl)N2C(=O)[C@@H](NC(=O)c2cc3cc(C(=O)P(=O)(O)O)ccc3[nH]2)C1` [I-30], which DC50 is on record?
The DC50 was 1 to 10 nM.

For `C#Cc1ccc([C@H](C)NC(=O)[C@@H]2C[C@@H](O)CN2C(=O)[C@@H](NC(=O)CCCc2cccc(OC[C@H](CCC(N)=O)NC(=O)[C@@H]3CC[C@@H]4CCN(C(C)=O)C[C@H](NC(=O)c5cc6cc(C(=O)P(=O)(O)O)ccc6[nH]5)C(=O)N43)c2C)C(C)(C)C)cc1` [I-13], which DC50 is on record?
Its DC50 is 10 to 100 nM.

For `C#Cc1ccc(CNC(=O)[C@@H]2C[C@@H](O)CN2C(=O)[C@@H](c2cc(OCCCc3cccc(OC[C@H](CCC(N)=O)NC(=O)[C@@H]4CC[C@@H]5CCN(C(C)=O)C[C@H](NC(=O)c6cc7cc(C(=O)P(=O)(O)O)ccc7[nH]6)C(=O)N54)c3Cl)no2)C(C)C)cc1` [I-3], which DC50 is on record?
Its DC50 is < 1 nM.

`CC(=O)N1CC[C@H]2CC[C@@H](C(=O)N[C@@H](CCC(N)=O)COc3cccc(CCCOc4cc([C@H](C(=O)N5C[C@H](O)C[C@H]5C(=O)NCc5ccc(-c6scnc6C)cc5)C(C)C)on4)c3Cl)N2C(=O)[C@@H](NC(=O)c2cc3cc(C(=O)P(=O)(O)O)ccc3[nH]2)C1` [I-27] was tested. Which DC50 did it give?
Its DC50 is < 1 nM.

How did the DC50 turn out when `CC(=O)N1CC[C@H]2CC[C@@H](C(=O)N[C@@H](CCC(N)=O)COc3cccc(CCCOc4cc([C@H](C(=O)N5C[C@H](O)C[C@H]5C(=O)NCc5ccc(-c6scnc6C)cc5)C(C)C)on4)c3C)N2C(=O)[C@@H](NC(=O)c2cc3cc(C(=O)P(=O)(O)O)ccc3[nH]2)C1` [I-21] was run?
The DC50 was < 1 nM.

For `CC(=O)N1CC[C@H]2CC[C@@H](C(=O)N[C@@H](CCC(N)=O)COc3cccc(CCCOc4cc([C@@H](C(=O)N5C[C@H](O)C[C@H]5C(=O)N[C@@H](C)c5ccc(-c6scnc6C)cc5)C(C)C)on4)c3Cl)N2C(=O)[C@@H](NC(=O)c2cc3cc(C(=O)P(=O)(O)O)ccc3[nH]2)C1` [I-2], which DC50 is on record?
The DC50 was 10 to 100 nM.

For `CNC(=O)N1CC[C@H]2CC[C@@H](C(=O)N[C@@H](CCC(N)=O)COc3cccc(CCCC(=O)N[C@H](C(=O)N4C[C@H](O)C[C@H]4C(=O)N[C@@H](C)c4ccc(-c5scnc5C)cc4)C(C)(C)C)c3Cl)N2C(=O)[C@@H](NC(=O)c2cc3cc(C(F)(F)P(=O)(O)O)ccc3s2)C1` [I-26], which DC50 is on record?
The DC50 was > 100 nM.

How did the DC50 turn out when `CC(=O)N1CC[C@H]2CC[C@@H](C(=O)N[C@@H](CCC(N)=O)COc3cccc(CCCOc4cc([C@H](C(=O)N5C[C@H](O)C[C@H]5C(=O)N[C@@H](C)c5ccc(-c6scnc6C)cc5)C(C)C)on4)c3Cl)N2C(=O)[C@@H](NC(=O)c2cc3cc(C(=O)P(=O)(O)O)ccc3[nH]2)C1` [I-23] was run?
The DC50 was < 1 nM.

For `C#Cc1ccc(CNC(=O)[C@@H]2C[C@@H](O)CN2C(=O)[C@@H](NC(=O)CCCc2cccc(OC[C@H](CCC(N)=O)NC(=O)[C@@H]3CC[C@@H]4CCN(C(C)=O)C[C@H](NC(=O)c5cc6cc(C(=O)P(=O)(O)O)ccc6[nH]5)C(=O)N43)c2F)C(C)(C)C)cc1` [I-9], which DC50 is on record?
The DC50 was 1 to 10 nM.

Which DC50 does the source give for `C#Cc1ccc([C@H](C)NC(=O)[C@@H]2C[C@@H](O)CN2C(=O)[C@@H](NC(=O)CCCc2cccc(OC[C@H](CCC(N)=O)NC(=O)[C@@H]3CC[C@@H]4CCN(C(C)=O)C[C@H](NC(=O)c5cc6cc(C(=O)P(=O)(O)O)ccc6[nH]5)C(=O)N43)c2Cl)C(C)(C)C)cc1` [I-4] here?
The DC50 was 1 to 10 nM.

`CC(=O)N1CC[C@@H]2CC[C@H](C(=O)N[C@@H](CCC(N)=O)COc3cccc(CCCCC(=O)N[C@H](C(=O)N4C[C@H](O)C[C@H]4C(=O)NCc4ccc(-c5scnc5C)cc4)C(C)(C)C)c3Cl)N2C(=O)[C@H](NC(=O)c2cc3cc(C(=O)P(=O)(O)O)ccc3[nH]2)C1` [I-24] was tested. Which DC50 did it give?
The DC50 was > 100 nM.
